Assay results taken from patent US4465851A, “Guanidinocyclohexanecarboxylic acid derivatives” (Nippon Chemiphar Co., Ltd., priority 1981, dated 1984).
Where “and” joins values, the source holds several entries; their conditions need not be identical. Equal values may be shown once. Where a name gives a salt, the structure may show the parent alone.

What was measured:
Plasmin [1] = details: J. Med. Chem., Vol. 15, No. 3, 247 (1972); cited from earlier work
Acute toxicity in mice = details: mouse, in vivo, po
Method: (§1) Normal ICR strain mice (female: 22 g, male: 24 g) or Wister strain rats (female: 90 g, male: 95 g) were used. A test compound was orally given using a gastric sonde. […] The LD50 values were calculated by the Litchfield-Wilcoxon method.

guinea pigs ilea [2] = test: Anti-histamine action; design: species or system guinea pig; details: Cavia porcellus, read-out: Anti-histamine effect inhibition of contraction
Excerpt: (§2) Anti-acetylcholine and anti-histamine effects of the present compounds were examined using guinea pigs ilea by the usual method.

Acute toxicity in rats = details: rat, in vivo, po
Method: as §1

[3] = Passive cutaneous anaphylaxis; format: in vivo; details: rat, 125 mg/kg, p.o., 1 hour prior to antigen; dilution ratio of antigen × 32
Method: Diluted anti-egg albumin (rat anti-egg albumin serum) with saline (0.05 ml) was subcutaneously injected into the back of a rat. 48 hours later, egg albumin and Evans' blue dissolved in saline (egg albumin 10 mg and Evans' blue 5 mg/ml) were intravenously injected into the rat in an amount of 2.5 ml/kg. 45 minutes later, the rat was killed, bled and skined, and the permeated area (mm^2) of the dye was measured. Test samples were administered per os 1 hour prior to antigen injection.

Urokinase = Urokinase (Homo sapiens, UniProt P00749); test: Inhibition of urokinase (AGLMe, chromotropic acid method); format: biochemical; details: 60 iu urokinase, 10 mM AGLMe, 37° C., 30 minutes, pH 7.5; read-out: Concentration for 50% inhibition (IC50), urokinase
Method: (§3) Inhibitory effects on the TAMe(N^α -tosyl-L-arginine methyl ester) hydrolytic activity of trypsin, plasmin, plasma kallikrein and thrombin were estimated by Hesterin's method modified by Roberts. Inhibition of the BAEe(N^α -benzoyl-L-arginine ethyl ester) hydrolytic activity of pancreas kallikrein was determined by Hesterin's method after incubation at 37° C. for 30 minutes in a 0.1M borate buffer, pH 8.0. Inhibitory effects on urokinase were determined by the chromotropic acid method after incubation of 60 iu of urokinase with 10 mM AGLMe(acetylglycyl-L-lysine methyl ester) at 37° C. for 30 minutes in a 0.06M phosphate buffer, pH 7.5, containing 0.09M NaCl. Inhibition of chymotrypsin was determined by Hesterin's method after incubation with 15 mM ATE (N^α -acetyl-L-tyrosine ethyl ester) for 30 minutes at 37° C. in a 0.1M borate buffer, pH 8.0.

Thrombin = Thrombin (Homo sapiens, UniProt P00734); test: Inhibition of thrombin (TAMe hydrolysis); format: biochemical; details: TAMe substrate; read-out: Concentration for 50% inhibition (IC50), thrombin
Plasma kallikrein = Plasma kallikrein (Homo sapiens, UniProt P03952); test: Inhibition of plasma kallikrein (TAMe hydrolysis); format: biochemical; details: TAMe substrate; read-out: Concentration for 50% inhibition (IC50), plasma kallikrein
Method: as §3

[4] = Active systemic anaphylaxis in mice; format: in vivo; details: oral, survivors of 5 mice
Method: Egg albumin (10 mg) was mixed with 10 ml Bordetella pertusis vaccine (Takeda Chemical Industries, Ltd.), and the mixture was intraperitoneally injected into mice in an amount of 10 ml/kg. 22 days later, active systemic anaphylaxis was induced by intravenous injection of egg albumin dissolved in saline in an amount of 3 mg/10 ml/kg. A test sample suspended in 5% gum arabic was administered orally to the sensitized mice 1 hour prior to the antigen challenge. 24 hours after the antigen challenge, the number of survived mice was counted.

Trypsin = target: T1, Trypsin (Bos taurus, UniProt P00760); test: Inhibition of trypsin (TAMe hydrolysis); format: biochemical; details: TAMe substrate; read-out: Concentration for 50% inhibition (IC50), trypsin
T1 sequence (P00760 24-246): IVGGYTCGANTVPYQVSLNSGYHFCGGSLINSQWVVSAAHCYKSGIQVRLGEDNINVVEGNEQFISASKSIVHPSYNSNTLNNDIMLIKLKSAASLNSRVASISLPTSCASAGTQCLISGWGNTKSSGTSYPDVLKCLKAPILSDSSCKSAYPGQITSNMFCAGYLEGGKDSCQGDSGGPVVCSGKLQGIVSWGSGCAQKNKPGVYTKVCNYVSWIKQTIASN
Method: as §3

Plasmin [5] = target: Plasmin (Homo sapiens, UniProt P00747); test: Inhibition of plasmin (TAMe hydrolysis); format: biochemical; details: TAMe substrate; read-out: Concentration for 50% inhibition (IC50), plasmin
Method: as §3

[6] = Experimental asthma with passively sensitized guinea pigs; format: in vivo, Hartley male guinea pigs; details: 500 mg/kg oral, individual animals (10 animals)
Method: Hartley male guinea pigs each weighing 300 to 350 g were passively sensitized by intravenous injection with rabbit anti-egg albumin serum (0.5 ml/kg). 24 hours after passive sensitization, the guinea pigs were placed in a chamber for an inhalation test and then subjected to continuous spraying for 900 seconds with a mist of a 2% egg albumin solution. A test sample suspended in 5% gum arabic was orally administered 1 hour prior to the antigen challenge. The preconvulsion time was measured.

Mast cells = test: Effects on histamine release from mast cells induced by compound 48/80; format: cell-based; details: Mast cell, read-out: Inhibition of histamine release
Method: After incubation for 20 minutes at 37° C., the suspension was cooled to 4° C., and released histamine was determined as described by Shore et al. All samples examined were recognized to cause no disturbance in the fluorometric assay.

Chymotrypsin = Chymotrypsin (Bos taurus, UniProt P00766); test: Inhibition of chymotrypsin (ATE hydrolysis); format: biochemical; details: 15 mM ATE, 30 minutes, 37° C., pH 8.0; read-out: Concentration for 50% inhibition (IC50), chymotrypsin
Method: as §3

[7] = Experimental asthma with actively sensitized guinea pigs; format: in vivo, Hartley male guinea pigs; details: individual animals, hydrochloride
Method: The evaluation was also performed in the experimental asthma with actively sensitized guinea pigs as follows: Hartley male guinea pigs each weighing 300 to 350 g were sensitized (by subcutaneous injection into the inguinal region) with an egg albumin solution (1 mg/ml) emulsified with an equal volume of Freund's complete adjuvant (5 mg/kg of body weight). Ten days later, the emulsion was injected subcutaneously into the axilla. On the 26th day after the first sensitization, the animals were subjected to the experiments which were conducted in the same manner as in the passively sensitized animals.

guinea pigs ilea [8] = test: Anti-acetylcholine action; design: species or system guinea pig; details: Cavia porcellus, read-out: Anti-acetylcholine effect inhibition of contraction
Excerpt: as §2

Pancreas kallikrein = Pancreas kallikrein (Sus scrofa, UniProt P00752); test: Inhibition of pancreas kallikrein (BAEe hydrolysis); format: biochemical; details: BAEe substrate, 37° C., 30 minutes, pH 8.0; read-out: Concentration for 50% inhibition (IC50), pancreas kallikrein
Method: as §3

[9] = system: ileum of each sensitized guinea pig; test: Schultz-Dale reaction; details: Cavia porcellus, read-out: Inhibition of contraction (Schultz-Dale reaction)
Method: Male guinea pigs were sensitized with bovine serum albumin by Freund's complete adjuvant method. After a lapse of 10 days, the animals were sensitized once more as described above. After two more weeks, an ileum of each sensitized guinea pig was removed and used for experiment. The ileum was equipped in a magnus tube containing each test sample, and 500 μg of bovine serum albumin was added. The contraction of the ileum was determined.

Sequence of Pancreas kallikrein (P00752 15-246 limits assumed): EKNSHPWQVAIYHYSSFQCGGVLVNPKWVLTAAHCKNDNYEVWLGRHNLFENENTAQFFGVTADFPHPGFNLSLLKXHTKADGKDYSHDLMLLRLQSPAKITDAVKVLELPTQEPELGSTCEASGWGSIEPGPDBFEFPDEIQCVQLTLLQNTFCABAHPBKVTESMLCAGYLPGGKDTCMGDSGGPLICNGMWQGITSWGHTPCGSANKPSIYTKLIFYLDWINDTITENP
Sequence of Plasma kallikrein (P03952 20-390 limits assumed, species assumed): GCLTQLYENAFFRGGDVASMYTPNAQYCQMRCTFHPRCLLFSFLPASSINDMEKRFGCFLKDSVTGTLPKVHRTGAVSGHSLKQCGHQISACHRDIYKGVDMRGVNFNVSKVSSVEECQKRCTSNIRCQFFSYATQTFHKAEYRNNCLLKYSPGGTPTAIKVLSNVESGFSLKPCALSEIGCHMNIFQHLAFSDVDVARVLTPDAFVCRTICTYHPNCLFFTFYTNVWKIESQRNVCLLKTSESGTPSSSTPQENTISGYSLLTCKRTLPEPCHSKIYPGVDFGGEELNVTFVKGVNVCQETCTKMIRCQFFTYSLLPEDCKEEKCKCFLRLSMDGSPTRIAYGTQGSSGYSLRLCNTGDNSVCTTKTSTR
Sequence of Plasmin (Homo sapiens, UniProt P00747) (P00747 97-580 limits assumed, species assumed): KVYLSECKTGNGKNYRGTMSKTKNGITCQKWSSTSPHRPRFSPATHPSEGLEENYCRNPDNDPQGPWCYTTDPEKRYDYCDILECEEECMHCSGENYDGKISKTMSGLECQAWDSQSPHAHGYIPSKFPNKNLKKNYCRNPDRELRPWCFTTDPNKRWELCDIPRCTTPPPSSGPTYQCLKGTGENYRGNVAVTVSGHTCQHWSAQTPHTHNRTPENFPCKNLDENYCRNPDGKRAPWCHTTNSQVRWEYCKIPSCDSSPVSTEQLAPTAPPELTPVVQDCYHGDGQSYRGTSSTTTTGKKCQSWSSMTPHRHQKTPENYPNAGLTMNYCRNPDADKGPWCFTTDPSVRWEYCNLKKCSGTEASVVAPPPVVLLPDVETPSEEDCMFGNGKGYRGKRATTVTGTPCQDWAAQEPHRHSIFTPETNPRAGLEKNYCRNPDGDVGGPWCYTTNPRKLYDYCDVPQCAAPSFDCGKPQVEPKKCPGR

## N=C(N)NCC1CCC(C(=O)O)CC1 (stereo not drawn) [4-guanidinomethylcyclohexanecarboxylic acid]
Plasmin [1]
  anti-plasmin effects: slight anti-plasmin effects

## CC(C)(C)c1ccc(OC(=O)[C@H]2CC[C@H](CNC(=N)N)CC2)cc1 [Compound 2, 4'-t-Butylphenyl trans-4-guanidinomethylcyclohexanecarboxylate hydrochloride]
Acute toxicity in mice
  LD50 at 168 h: 7300 mg/kg
Acute toxicity in mice; 10080 min, hydrochloride
  LD50: 5400 mg/kg
Guinea pigs ilea [2]
  inhibition at 25 µg/mL: 82%
  inhibition at 50 µg/mL: 96.5%
Acute toxicity in rats
  LD50 at 168 h: 10800 mg/kg
Acute toxicity in rats; 10080 min, hydrochloride
  LD50: 11,000 mg/kg
[3]
  Inhibition of passive cutaneous anaphylaxis: 91.16%
Urokinase
  IC50: 36 µM
Thrombin
  IC50: 250 µM
Plasma kallikrein
  IC50: 150 µM
[4]; 100 mg/kg
  Survival after 24 hr. (5 mice): 2 mice
[4]; 250 mg/kg
  Survival after 24 hr. (5 mice): 2 mice
[4]; 500 mg/kg
  Survival after 24 hr. (5 mice): 4 mice
Trypsin
  IC50: 170 µM
Plasmin [5]
  IC50: 260 µM
[6]
  Time to fall down: > 900 s
Mast cells
  inhibition at 10 µg/mL: 46.7%
Chymotrypsin
  IC50: 97 µM
[7]; 125 mg/kg oral, 125 mg/kg
  Time to fall down: 699 sec. and > 900 sec. (4×)
[7]; 250 mg/kg oral, 250 mg/kg
  Time to fall down: 632 sec. and > 900 sec. (4×)
[7]; 500 mg/kg oral, 500 mg/kg
  Time to fall down: 768 sec. and > 900 sec. (4×)
Guinea pigs ilea [8]; final conc. 25 μg/ml
  inhibition at 25 µg/mL: 96%
Guinea pigs ilea [8]; final conc. 50 μg/ml
  inhibition at 50 µg/mL: 100%
Pancreas kallikrein
  IC50: 62 µM
[9]
  inhibition at 25 µg/mL: 64.3%
  inhibition at 50 µg/mL: 100%
